Test results as given in patent US6489157B1, “Medium for cultivating microorganisms” (priority 1999, dated 2002).

Key:
isolate of CHL004 = assay: Use as phosphate source for growth; format: cell-based, Pseudomonas aeruginosa
From the text: In Wanner (16), it is noted that organophosphates can be directly transported to the cytoplasm of E. coli and S. typhimurium, or they can be hydrolyzed in the periplasm by phosphatases, after which the phosphate is transported to the cytoplasm.

[1] = Solubility of Pb(NO3)2 in BPTN, ICAP trace metal analysis before and after 0.2 micrometer filtering; format: physicochemical; settings: n=4
P. aeruginosa CHL004 = assay: Growth in medium with Pb(NO3)2; format: cell-based, Pseudomonas aeruginosa; settings: Pb(NO3)2 increased from zero to 1 mM in BPTN
Method: All cultures were grown at 29° C. in a water bath incubator with shaking at a speed of 200 rpm. The cultures were inoculated with a saturated overnight culture in BPTN. Overnight cultures (˜18 hours) were prepared from −80° C. freezer stocks. Data were typically obtained after approximately three or more doublings, and only data between an optical density at 650 nm (OD650) of 0.1 and half the saturation cell density were used for analysis.
Growth rate and saturation cell density studies. The OD650 was measured using a Perkin Elmer Lambda 2 UV/VIS spectrometer. The cell path length was 10 mm. Duplicate 100 μL aliquots were taken from growing cultures and diluted with 900 microliters of a solution having a minimum concentration of 62 mM NaNO3. The same diluent was used within a given growth rate curve. Sixty two mM NaNO3 was determined to be isosmotic with BPTN. Osmolalities were determined using a Precision Instruments microOsmette freezing point depression osmometer calibrated at 0, 100, and 500 mOsm.
Growth in medium with Pb(NO3)2. […] The variances from the growth rate curve fittings for BPTN+1 mM Pb(NO3) 2 are typically equal to or smaller than those for BPTN. […] A linear relationship between CFU/mL and OD650 is expected if the extent of scattering is proportional to the cell density in the cell slurry. […]

| SMILES | use as a phosphate source (isolate of CHL004) | Pb^2+ concentration after filtering ([1]; 0.2 micrometer PES syringe filter) [mM] | Pb^2+ concentration before filtering [1] [mM] | change of growth rate constant of CHL004 with Pb(NO3)2 concentration (P. aeruginosa CHL004) |
| --- | --- | --- | --- | --- |
| N[C@@H](COP(=O)(O)O)C(=O)O [O-Phospho-L-serine] | can be used as a phosphate source | – | – | – |
| O=[N+]([O-])[O-].O=[N+]([O-])[O-].[Pb+2] [Pb(NO3)2] | – | 25.1 ± 1.3 | 24.0 ± 0.6 | decreases |
